Data on two compounds can be found in patent publication US20250177408A1, “INHIBITOR OF INTERACTION BETWEEN YAP/TAZ AND TEAD, PREPARATION THEREOF, PHARMACEUTICAL COMPOSITION THEREOF AND USE THEREOF” (ETERN BIOPHARMA (SHANGHAI) CO., LTD., priority 2022, published 2025).

pIC50: −log10 of the molar value.

For one test, the system named is MSTO-211H cells. Nature of the test: Cell proliferation inhibition experiment (CellTiter-Glo). The conditions noted are these: Homo sapiens, 96 hours, read-out: Inhibitory activity of each compound on the proliferation of MSTO-211H cells (grades of IC50 values). The test is classed as cell-based. The procedure, abridged:
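MSTO-211H cells (1500/well, RPMI1640 + 10% FBS) were plated overnight at 37° C, 5% CO2, then exposed in duplicate to 9 three-fold compound dilutions (DMSO ≤0.5% final) for 96 hours. Viability was read as CellTiter-Glo luminescence after 10 min at room temperature. IC50 was derived from inhibition of the CTG signal.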
In general terms: In ATP-based viability assays light output follows the ATP content of the culture.

The target of test [1] is YAP-TEAD protein interaction (His-TEAD1 (209-426) protein, Bio-YAP peptide (60-100)) (Homo sapiens, UniProt P28347). Description: YAP-TEAD protein interaction HTRF experiment. The format is binding. The conditions noted are these: His-TEAD1 (209-426) 10 nM, Bio-YAP peptide 50 nM, read-out: Activity of each compound in blocking YAP-TEAD protein interaction (grades of IC50 values). The method in brief:
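His-TEAD1 (209-426) at 10 nM final was preincubated 20 min at RT with compounds (10-point 3-fold dilutions, duplicates, 1% DMSO), then Bio-YAP peptide, 10 min. Anti-His-Eu cryptate/streptavidin-XL665 added for 1 h at RT; HTRF read at ex 320 nm, Em665/Em620 ratio ×10000, IC50 from % inhibition.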
For orientation: TR-FRET usually uses a lanthanide donor and a delayed reading to cut background.

Another test has as its system YAP/TEAD reporter gene. Nature of the test: YAP/TEAD reporter gene inhibition experiment in SF268-YAP-Luc cells. The test is classed as cell-based. As to conditions: SF268-YAP-Luc cells, 24 hours, Renila luciferase signal corrected for cell viability; read-out: Activity of each compound in inhibiting the expression of YAP/TEAD reporter gene (grades of IC50 values). The procedure:
In this example, the inhibition of the compound on the target was detected by the signal of the reporter gene in the stable cell line SF268-YAP-Luc containing the YAP/TEAD reporter gene.
A sequence containing 6 tandem YAP/TEAD binding sites and a basal transcription promoter was constructed on the vector pGL4.76 of Promega Company. The constructed reporter gene vector was transfected into SF268 cells (NCI DCTD tumor/cell line repository) and screened with 0.5 μg/mL hygromycin to obtain SF268-YAP-Luc stable strain.
SF268-YAP-Luc cells were seeded into a 96-well plate at a density of 3000 cells per well with a volume of 100 μL per well (cell culture medium composition: RPMI1640 (Gibco-A10491-01)+10% FBS (Gibco-10099-141C)+1% penicillin-streptomycin (5,000 U/mL, Gibco-15070-063)), and the cells were incubated overnight in a 37° C., 5% carbon dioxide incubator.
On the next day, the compounds to be tested were 3-fold diluted, and a total of 8 concentration gradients were set up; a certain volume of DMSO or the compounds to be tested was added to each well, respectively, and 2 replicates were set up for each concentration, and the final concentration of DMSO was controlled to be no higher than 0.5%. The cells were incubated for 24 hours in a 37° C., 5% carbon dioxide incubator. Two identical parallel plates were set up for cell seeding and compound treatment.
Renila-Glo luciferase assay system kit (Promega, E2720) was used to detect the reporter gene signals of the control group and treatment group. 70 μL of Renila-Glo was added to each well, mixed well, and incubated at room temperature for 10 minutes. The signal was read using EnVision® Multilabel Plate Reader (Perkin Elmer).
Cell viability was detected in the control group and treatment group using CellTiter-Glo Luminescent Cell Viability Assay kit (Promega, G7570). 50 μL of CellTiter-Glo was added to each well, mixed well, and incubated at room temperature for 10 minutes. The signal was read using En Vision® Multilabel Plate Reader (Perkin Elmer).
The signal of Renila luciferase after correcting for cell viability was analyzed, and the inhibition rate of the compound on the reporter gene was calculated. The inhibition percentage (%) is calculated by the following formula: […]
Using Graphpad Prism software, the IC50 values for the compounds' inhibitory activity against Renila luciferase signaling were calculated.
In general terms: A reporter such as luciferase makes a cellular process visible.

Chain of YAP-TEAD protein interaction (His-TEAD1 (209-426) protein, Bio-YAP peptide (60-100)) (P28347 209-426): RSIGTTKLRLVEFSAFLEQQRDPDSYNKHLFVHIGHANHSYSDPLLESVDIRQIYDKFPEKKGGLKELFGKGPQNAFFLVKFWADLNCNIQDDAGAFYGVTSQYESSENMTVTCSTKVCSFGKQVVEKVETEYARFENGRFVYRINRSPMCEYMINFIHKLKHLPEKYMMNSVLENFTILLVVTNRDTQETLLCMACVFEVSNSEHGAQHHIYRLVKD

`CN1C(=O)COc2c1cc(C(N)=O)c(-c1c(Cl)c(F)cc3c1C[C@](c1ccccc1)([C@@H]1CCCN1)O3)c2F` (atropisomer, axis not shown) [Compound I-25, (S)-7-((S)-5-Chloro-6-fluoro-2-phenyl-2-((S)-pyrrolidin-2-yl)-2,3-dihydrobenzofuran-4-yl)-8-fluoro-4-methyl-3-oxo-3,4-dihydro-2H-benzo[b][1,4]oxazine-6-carboxamide]: the pIC50 was 6.30 to 6.70 with MSTO-211H cells, greater than 7.30 in test [1] and 6.30 to 7.30 with YAP/TEAD reporter gene.
The corresponding values for `CC(=O)N1CCOc2c1cc(C(N)=O)c(-c1c(Cl)c(F)cc3c1C[C@](c1ccccc1)([C@@H]1CCCN1)O3)c2F` (atropisomer, axis not shown) [Compound I-27, (S)-4-Acetyl-7-((S)-5-chloro-6-fluoro-2-phenyl-2-((S)-pyrrolidin-2-yl)-2,3-dihydrobenzofuran-4-yl)-8-fluoro-3,4-dihydro-2H-benzo[b][1,4]oxazine-6-carboxamide] are 6.30 to 6.70, greater than 7.30 and greater than 7.30.
